Test results published in patent US7635491B2, “Method for administering selenium for treating patients suffering from systemic inflammatory response syndrome (SIRS), and composition for implementing the treatment” (priority 1998, dated 2009).

Tested on: severe systemic inflammatory response syndrome (SIRS)
Experiment: Treatment of intensive-care patients with severe SIRS / septic shock by continuous administration of sodium selenite (case reports)
Assay type: in vivo, human
Method: A patient, 75 kg, chronic alcoholic with no history of icteroascitic, hemorrhagic or encephalopathic compensation, was admitted to postoperative intensive care with generalized purulent peritonitis from colonic perforation during an attack of diverticular sigmoiditis.
His initial hemodynamics were maintained by perfusion. […] There was a moderate renal insufficiency. An adapted empirical antibiotic therapy was begun, and modified after 48 hours in view of the antiobiograms. At 24 hours severity indexes were IGS II 29, APACHE II 17 and SOFA score was 5. One day after the operation, the situation worsened rapidly with onset of a state of shock with lactic acidosis 5 μmol/l requiring administration of dopamine then rapidly noradrenaline up to 4 mg/h (0.9 μg/kg/min). There was a deterioration of respiratory state requiring increase of the FiO2 because of the onset of an acute adult respiratory distress syndrome (ARDS). As soon as the necessity of noradrenaline administration was recognized, a treatment with sodium selenite by continuous administration was begun at a dose of 4 mg of atomic selenium equivalent over the first 24 hours, followed by continuous administration of sodium selenite at a dose of 1 mg of atomic selenium equivalent for 10 days.
A patient, depressive, anorexic, 51 kg and 1.75 m tall, was admitted on a tentative diagnosis of drug-induced suicide with ingestion of a large amount of analgesics and sedatives. The diagnosis was rapidly changed to generalized purulent peritonitis from a perforated gastric ulcer. They were transferred to postoperative intensive care. There was also a shock condition requiring perfusion and introduction of catechol amines as noradrenaline and dolbutamine; lactic acidosis at 6 μmol/l. Antibacterial and antifungal antibiotic therapy was performed. Diuresis was maintained under diuretics. One hour after the start of noradrenaline administration, a treatment with sodium selenite by continuous administration was begun at a dose of 4 mg of atomic selenium equivalent over the first 24 hours, followed by continuous administration of sodium selenite at a dose of 1 mg of atomic selenium equivalent for 10 days. At 24 hours the severity indexes were IGS II 44, APACHE II 35. The SOFA score was 8.
A patient, presenting major alcohol-tobacco addiction (more than 1 liter of wine per day, 2 packets of cigarettes per day), chronic BPCO respiratory insufficiency, stage 2 arteritis of the lower limbs and deterioration in general health for several months with a productive cough, was transferred to intensive care after a short stay in general medicine. At admission there was a respiratory distress requiring emergency intubation-ventilation. Blood gases confirmed major respiratory acidosis. The patient was feverish. There was a hyperleucocytosis of 24 000 leucocytes of which 88% were polymorphonuclear cells. Blood pressure was stable under perfusion, however there were blotches on the knees. There were no coagulation problems nor renal insufficiency. At 24 hours IGS II was 41, APACHE II 26, and SOFA score 8. Lung samples taken by protected telescopic brush and brochoalveolar washing confirmed the diagnosis of community-acquired pneumonia: 47% of cells infected, Haemophilus influenza β-lactamase negative and wild-type streptococcal anginosis.
The immediate development was marked by a rapid deterioration of respiratory state with necessity of ventilation at FiO2 100%, PEP 8. In addition, very substantial perfusion was necessary with measurement of pressure by right catheterization. Dopamine had to be administered at 10 μg/kg/min. After 8 hours dopamine administration, a treatment with sodium selenite by continuous administration was begun at a dose of 4 mg of atomic selenium equivalent over the first 24 hours, followed by continuous administration of sodium selenite at a dose of 1 mg of atomic selenium equivalent for 10 days. […]

For `O=[Se](O)O` [sodium selenite, Sodium selenite [Na2O3Se]], which “left intensive care, time after the operation” value (Example 1) is on record?
Its value is 10 days.

What about the platelet level (Example 1, no disseminated intravascular coagulation) of the same molecule?
Its platelet level is “higher than 150 000 platelets/mm^3”.

And the “extubation, time after the operation” value (Example 2)?
The value was 20 days.

And the platelet level (Example 2)?
The platelet level was 50%.

And the “time to regression of the shock condition” value (Example 2: patient, purulent peritonitis, shock, 4 mg atomic selenium equivalent over first 24 hours, then 1 mg for 10 days)?
Its value is 24 h.

What about the “hyperlactatemia, maximum (then reduced as from the second day)” value (Example 3) of the same molecule?
The value was 10 µmol/L.

What about the “thrombopenia, platelets” value (Example 3, moderate CIVD) of the same molecule?
The value was 7500 platelets/mm^3.
